Source: PubChem BioAssay (NCI)
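A five-concentration, 48-hour dose response in 96-well plates underlies each endpoint, interpolated linearly between surrounding concentrations. GI50 = concentration required for 50% inhibition of growth. TGI: total growth inhibition.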

What was measured:
Assay in all cases: DTP human tumour cell line panel, 48 h
HT29 colon = test system: HT29 colon
OVCAR-5 ovarian = test system: OVCAR-5 ovarian
UACC-257 melanoma = test system: UACC-257 melanoma
T-47D breast = test system: T-47D breast
RXF 393 renal = test system: RXF 393 renal
LOX IMVI melanoma = test system: LOX IMVI melanoma
MDA-MB-435 = test system: MDA-MB-435
SNB-19 CNS = test system: SNB-19 CNS
SW-620 colon = test system: SW-620 colon
786-0 renal = test system: 786-0 renal
OVCAR-3 ovarian = test system: OVCAR-3 ovarian
NCI/ADR-RES ovarian = test system: NCI/ADR-RES ovarian
SK-MEL-2 melanoma = test system: SK-MEL-2 melanoma
PC-3 prostate = test system: PC-3 prostate
OVCAR-4 ovarian = test system: OVCAR-4 ovarian
OVCAR-8 ovarian = test system: OVCAR-8 ovarian
DU-145 prostate = test system: DU-145 prostate
SF-539 CNS = test system: SF-539 CNS
HOP-62 NSCLC = test system: HOP-62 NSCLC
SNB-75 CNS = test system: SNB-75 CNS
ACHN renal = test system: ACHN renal
HL-60(TB) leukemia = test system: HL-60(TB) leukemia
SK-OV-3 ovarian = test system: SK-OV-3 ovarian
SK-MEL-28 melanoma = test system: SK-MEL-28 melanoma
HCT-116 colon = test system: HCT-116 colon
A498 renal = test system: A498 renal
SN12C renal = test system: SN12C renal
MDA-MB-231 breast = test system: MDA-MB-231 breast
HOP-92 NSCLC = test system: HOP-92 NSCLC
NCI-H522 lung = test system: NCI-H522 lung
HCC-2998 colon = test system: HCC-2998 colon
NCI-H23 lung = test system: NCI-H23 lung
TK-10 renal = test system: TK-10 renal
EKVX NSCLC = test system: EKVX NSCLC
NCI-H460 lung = test system: NCI-H460 lung
NCI-H226 lung = test system: NCI-H226 lung
UACC-62 melanoma = test system: UACC-62 melanoma
M14 melanoma = test system: M14 melanoma
CCRF-CEM leukemia = test system: CCRF-CEM leukemia
COLO 205 colon = test system: COLO 205 colon
A549 NSCLC = test system: A549 NSCLC
CAKI-1 renal = test system: CAKI-1 renal
MDA-MB-468 breast = test system: MDA-MB-468 breast
KM12 colon = test system: KM12 colon
HCT-15 colon = test system: HCT-15 colon
SF-295 CNS = test system: SF-295 CNS
UO-31 renal = test system: UO-31 renal
RPMI-8226 leukemia = test system: RPMI-8226 leukemia
HS 578T breast = test system: HS 578T breast
K-562 leukemia = test system: K-562 leukemia
MCF7 breast = test system: MCF7 breast
SR leukemia = test system: SR leukemia
IGROV1 ovarian = test system: IGROV1 ovarian
SF-268 CNS = test system: SF-268 CNS
MALME-3M melanoma = test system: MALME-3M melanoma
U251 CNS = test system: U251 CNS
MOLT-4 leukemia = test system: MOLT-4 leukemia
BT-549 breast = test system: BT-549 breast
SK-MEL-5 melanoma = test system: SK-MEL-5 melanoma

Structure (SMILES): O=C(N/N=C/c1ccc(B(O)O)s1)c1[nH]c2ccc(Br)cc2c1-c1ccccc1
- GI50 (HT29 colon): 290 nM
- TGI (HT29 colon): 992 nM
- GI50 (OVCAR-5 ovarian): 390 nM
- TGI (OVCAR-5 ovarian): 13900 nM
- GI50 (UACC-257 melanoma): 1250 nM
- TGI (UACC-257 melanoma): 18200 nM
- GI50 (T-47D breast): 3740 nM
- TGI (T-47D breast): 22700 nM
- GI50 (RXF 393 renal): 343 nM
- TGI (RXF 393 renal): 13600 nM
- GI50 (LOX IMVI melanoma): 350 nM
- TGI (LOX IMVI melanoma): 6220 nM
- GI50 (MDA-MB-435): 250 nM
- TGI (MDA-MB-435): 647 nM
- GI50 (SNB-19 CNS): 387 nM
- TGI (SNB-19 CNS): 13500 nM
- GI50 (SW-620 colon): 395 nM
- TGI (SW-620 colon): 14800 nM
- GI50 (786-0 renal): 411 nM
- TGI (786-0 renal): 8280 nM
- GI50 (OVCAR-3 ovarian): 302 nM
- TGI (OVCAR-3 ovarian): 2960 nM
- GI50 (NCI/ADR-RES ovarian): 238 nM
- TGI (NCI/ADR-RES ovarian): 587 nM
- GI50 (SK-MEL-2 melanoma): 432 nM
- TGI (SK-MEL-2 melanoma): 14000 nM
- GI50 (PC-3 prostate): 476 nM
- TGI (PC-3 prostate): 16500 nM
- GI50 (OVCAR-4 ovarian): 3560 nM
- TGI (OVCAR-4 ovarian): 24100 nM
- GI50 (OVCAR-8 ovarian): 272 nM
- TGI (OVCAR-8 ovarian): 816 nM
- GI50 (DU-145 prostate): 367 nM
- TGI (DU-145 prostate): 11600 nM
- GI50 (SF-539 CNS): 227 nM
- TGI (SF-539 CNS): 551 nM
- GI50 (HOP-62 NSCLC): 557 nM
- TGI (HOP-62 NSCLC): 11800 nM
- GI50 (SNB-75 CNS): 316 nM
- TGI (SNB-75 CNS): 5630 nM
- GI50 (ACHN renal): 512 nM
- TGI (ACHN renal): 14000 nM
- GI50 (HL-60(TB) leukemia): 230 nM
- TGI (HL-60(TB) leukemia): 659 nM
- GI50 (SK-OV-3 ovarian): 691 nM
- TGI (SK-OV-3 ovarian): 15000 nM
- GI50 (SK-MEL-28 melanoma): 856 nM
- TGI (SK-MEL-28 melanoma): 16700 nM
- GI50 (HCT-116 colon): 331 nM
- TGI (HCT-116 colon): 4340 nM
- GI50 (A498 renal): 8500 nM
- TGI (A498 renal): 21600 nM
- GI50 (SN12C renal): 374 nM
- TGI (SN12C renal): 8110 nM
- GI50 (MDA-MB-231 breast): 339 nM
- TGI (MDA-MB-231 breast): 11300 nM
- GI50 (HOP-92 NSCLC): 974 nM
- TGI (HOP-92 NSCLC): 6340 nM
- GI50 (NCI-H522 lung): 208 nM
- TGI (NCI-H522 lung): 549 nM
- GI50 (HCC-2998 colon): 364 nM
- TGI (HCC-2998 colon): 5810 nM
- GI50 (NCI-H23 lung): 378 nM
- TGI (NCI-H23 lung): 13200 nM
- GI50 (TK-10 renal): 7960 nM
- TGI (TK-10 renal): 22900 nM
- GI50 (EKVX NSCLC): 425 nM
- TGI (EKVX NSCLC): 11200 nM
- GI50 (NCI-H460 lung): 363 nM
- TGI (NCI-H460 lung): 4100 nM
- GI50 (NCI-H226 lung): 511 nM
- TGI (NCI-H226 lung): 5430 nM
- GI50 (UACC-62 melanoma): 395 nM
- TGI (UACC-62 melanoma): 5920 nM
- GI50 (M14 melanoma): 371 nM
- TGI (M14 melanoma): 12700 nM
- GI50 (CCRF-CEM leukemia): 366 nM
- TGI (CCRF-CEM leukemia): 12600 nM
- GI50 (COLO 205 colon): 231 nM
- TGI (COLO 205 colon): 515 nM
- GI50 (A549 NSCLC): 423 nM
- TGI (A549 NSCLC): 13400 nM
- GI50 (CAKI-1 renal): 444 nM
- TGI (CAKI-1 renal): 13600 nM
- GI50 (MDA-MB-468 breast): 235 nM
- TGI (MDA-MB-468 breast): 572 nM
- GI50 (KM12 colon): 342 nM
- TGI (KM12 colon): 4900 nM
- GI50 (HCT-15 colon): 340 nM
- TGI (HCT-15 colon): 8830 nM
- GI50 (SF-295 CNS): 299 nM
- TGI (SF-295 CNS): 5380 nM
- GI50 (UO-31 renal): 1050 nM
- TGI (UO-31 renal): 14100 nM
- GI50 (RPMI-8226 leukemia): 521 nM
- TGI (RPMI-8226 leukemia): > 52300 nM
- GI50 (HS 578T breast): 296 nM
- TGI (HS 578T breast): 3440 nM
- GI50 (K-562 leukemia): 354 nM
- TGI (K-562 leukemia): 16300 nM
- GI50 (MCF7 breast): 333 nM
- TGI (MCF7 breast): 10500 nM
- GI50 (SR leukemia): 364 nM
- TGI (SR leukemia): 14300 nM
- GI50 (IGROV1 ovarian): 403 nM
- TGI (IGROV1 ovarian): 13100 nM
- GI50 (SF-268 CNS): 515 nM
- TGI (SF-268 CNS): 10200 nM
- GI50 (MALME-3M melanoma): 512 nM
- TGI (MALME-3M melanoma): 21100 nM
- GI50 (U251 CNS): 311 nM
- TGI (U251 CNS): 4600 nM
- GI50 (MOLT-4 leukemia): 459 nM
- TGI (MOLT-4 leukemia): 14400 nM
- GI50 (BT-549 breast): 348 nM
- TGI (BT-549 breast): 1020 nM
- GI50 (SK-MEL-5 melanoma): 215 nM
- TGI (SK-MEL-5 melanoma): 497 nM
